Measurements from the supplement of paper PMC10307832.

Tests used:
Test in all cases: relative viability (nuclei count vs DMSO), 5 days (fraction); higher = more cells survive
NCI-H2126 = system: NCI-H2126
How it was run: (§1)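 Relative viability was taken as the ratio of nuclei in treated wells to nuclei in vehicle wells. Lung cancer cell lines in 1536-well plates received compounds by pin tool one day after seeding, either one drug alone or a fixed anchor-drug dose plus five library-drug doses (not always all listed) in √10 steps. Nuclei were counted on 4× images after 5 days of treatment, and values are medians of duplicate plates.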

NCI-H2347 = system: NCI-H2347
How it was run: as §1

NCI-H23 = system: NCI-H23
How it was run: as §1

NCI-H3122 = system: NCI-H3122
How it was run: as §1

NCI-H441 = system: NCI-H441
How it was run: as §1

NCI-H522 = system: NCI-H522
How it was run: as §1

NCI-H596 = system: NCI-H596
How it was run: as §1

NCI-H647 = system: NCI-H647
How it was run: as §1

NCI-H650 = system: NCI-H650
How it was run: as §1

NCI-H727 = system: NCI-H727
How it was run: as §1

NCI-H838 = system: NCI-H838
How it was run: as §1

Cc1sc2c(c1C)C(c1ccc(Cl)cc1)=N[C@@H](CC(=O)OC(C)(C)C)c1nnc(C)n1-2 [JQ1] + O=C(c1cc(Cc2n[nH]c(=O)c3ccccc23)ccc1F)N1CCN(C(=O)C2CC2)CC1 [Olaparib] (partner 8 µM)
relative viability (NCI-H2126; first compound 0.04 µM): 0.895 | relative viability (NCI-H2126; first compound 0.1265 µM): 0.909 | relative viability (NCI-H2126; first compound 0.4 µM): 0.951 | relative viability (NCI-H2126; first compound 1.265 µM): 0.8 | relative viability (NCI-H2126; first compound 4 µM): 0.735 | relative viability (NCI-H2347; first compound 0.04 µM): 0.544 | relative viability (NCI-H2347; first compound 0.1265 µM): 0.557 | relative viability (NCI-H2347; first compound 0.4 µM): 0.477 | relative viability (NCI-H2347; first compound 1.265 µM): 0.435 | relative viability (NCI-H2347; first compound 4 µM): 0.409 | relative viability (NCI-H23; first compound 0.04 µM): 0.329 | relative viability (NCI-H23; first compound 0.1265 µM): 0.341 | relative viability (NCI-H23; first compound 0.4 µM): 0.162 | relative viability (NCI-H23; first compound 1.265 µM): 0.179 | relative viability (NCI-H23; first compound 4 µM): 0.127 | relative viability (NCI-H3122; first compound 0.04 µM): 0.558 | relative viability (NCI-H3122; first compound 0.1265 µM): 0.586 | relative viability (NCI-H3122; first compound 0.4 µM): 0.494 | relative viability (NCI-H3122; first compound 1.265 µM): 0.485 | relative viability (NCI-H3122; first compound 4 µM): 0.276 | relative viability (NCI-H441; first compound 0.04 µM): 0.612 | relative viability (NCI-H441; first compound 0.1265 µM): 0.523 | relative viability (NCI-H441; first compound 0.4 µM): 0.256 | relative viability (NCI-H441; first compound 1.265 µM): 0.17 | relative viability (NCI-H441; first compound 4 µM): 0.17 | relative viability (NCI-H522; first compound 0.04 µM): 0.577 | relative viability (NCI-H522; first compound 0.1265 µM): 0.674 | relative viability (NCI-H522; first compound 0.4 µM): 0.453 | relative viability (NCI-H522; first compound 1.265 µM): 0.388 | relative viability (NCI-H522; first compound 4 µM): 0.344 | relative viability (NCI-H596; first compound 0.04 µM): 0.618 | relative viability (NCI-H596; first compound 0.1265 µM): 0.499 | relative viability (NCI-H596; first compound 0.4 µM): 0.367 | relative viability (NCI-H596; first compound 1.265 µM): 0.326 | relative viability (NCI-H596; first compound 4 µM): 0.321 | relative viability (NCI-H647; first compound 0.04 µM): 0.384 | relative viability (NCI-H647; first compound 0.1265 µM): 0.185 | relative viability (NCI-H647; first compound 0.4 µM): 0.128 | relative viability (NCI-H647; first compound 1.265 µM): 0.0378 | relative viability (NCI-H647; first compound 4 µM): 0.036 | relative viability (NCI-H650; first compound 0.04 µM): 0.363 | relative viability (NCI-H650; first compound 0.1265 µM): 0.306 | relative viability (NCI-H650; first compound 0.4 µM): 0.273 | relative viability (NCI-H650; first compound 1.265 µM): 0.151 | relative viability (NCI-H650; first compound 4 µM): 0.146 | relative viability (NCI-H727; first compound 0.04 µM): 0.668 | relative viability (NCI-H727; first compound 0.1265 µM): 0.759 | relative viability (NCI-H727; first compound 0.4 µM): 0.599 | relative viability (NCI-H727; first compound 1.265 µM): 0.555 | relative viability (NCI-H727; first compound 4 µM): 0.497 | relative viability (NCI-H838; first compound 0.04 µM): 0.749 | relative viability (NCI-H838; first compound 0.1265 µM): 0.327 | relative viability (NCI-H838; first compound 0.4 µM): 0.395 | relative viability (NCI-H838; first compound 1.265 µM): 0.237 | relative viability (NCI-H838; first compound 4 µM): 0.174
